From publication PMC3299850 (2012) come the findings set out here.

One may read the Kd as the constant that tells how readily two partners part at equilibrium. High values mean a looser complex, low ones a tighter complex.

In experiment [1] the test system is HP1 (TAMRA at T37) (DNA, hairpin, T37 replaced by 2'-deoxyuridine bearing TAMRA at C5) CCTGGAGAGGAAGCCAAGTGTTTTCACTTGGCTTCCTCTCCAGG
Kind of experiment: fluorescence titration. As to conditions: 50 mM NaCl; 10 mM HEPES, 1 mM EDTA, pH 7.4, 25 °C.

Experiment [2] has as its system HP2 unlabeled (DNA, hairpin) GCTAGATATATAGCTTTTTAGCTATATATCTAGC
The experiment in a line: competition fluorescence titration. To be noted: 50 mM NaCl; 10 mM HEPES, 1 mM EDTA, pH 7.4, 25 °C; TAMRA-HP2 complex displaced.

In experiment [3] the test system is HP1 (TAMRA at T34) (DNA, hairpin, T34 replaced by 2'-deoxyuridine bearing TAMRA at C5) CCTGGAGAGGAAGCCAAGTGTTTTCACTTGGCTTCCTCTCCAGG
Kind of experiment: fluorescence titration. As to conditions: 50 mM NaCl; 10 mM HEPES, 1 mM EDTA, pH 7.4, 25 °C.

Take `CN(C)CCCNC(=O)CCNC(=O)c1cc(NC(=O)c2cc(NC(=O)c3nc(NC(=O)CCCNC(=O)c4cc(NC(=O)c5nc(NC(=O)c6nccn6C)cn5C)cn4C)cn3C)cn2C)cn1C`: the dissociation constant Kd in experiment [1] was determined as 7.8 ± 1.6 nM.
On the same count and under the same terms, to `CN(C)CCCNC(=O)CCNC(=O)c1cc(NC(=O)c2cc(NC(=O)c3cc(NC(=O)c4cc(NC(=O)CCCNC(=O)c5nc(NC(=O)CCNC(=O)c6nc(NC(=O)c7nccn7C)cn6C)cn5C)cn4C)cn3C)cn2C)cn1C` belongs 140 ± 30 nM.
On the same count and under the same terms, the value for `CN(C)CCCNC(=O)CCNC(=O)c1cc(NC(=O)CCNC(=O)c2cc(NC(=O)c3cc(NC(=O)CCCNC(=O)c4nc(NC(=O)c5cc(NC(=O)c6nc(NC(=O)c7nccn7C)cn6C)cn5C)cn4C)cn3C)cn2C)cn1C` was 50 ± 15 nM.
Take `CN(CCCN)CCCNC(=O)CCNC(=O)c1cc(NC(=O)c2cc(NC(=O)c3cc(NC(=O)c4cc(NC(=O)CCNC(=O)c5cc(NC(=O)c6cc(NC(=O)CCCNC(=O)c7cc(NC(=O)c8cc(NC(=O)c9cc(NC(=O)CCNC(=O)c%10cc(NC(=O)c%11cc(NC(=O)c%12nccn%12C)cn%11C)cn%10C)cn9C)cn8C)cn7C)cn6C)cn5C)cn4C)cn3C)cn2C)cn1C`: the dissociation constant (Kd) in experiment [2] stood at 1.8 nM.
In experiment [3], `CN(C)CCCNC(=O)CCNC(=O)c1cc(NC(=O)c2nc(NC(=O)c3nc(NC(=O)c4cc(NC(=O)CCCNC(=O)c5cc(NC(=O)c6cc(NC(=O)c7cc(NC(=O)c8nccn8C)cn7C)cn6C)cn5C)cn4C)cn3C)cn2C)cn1C` gave a dissociation constant (Kd) of 11.4 ± 1 nM.
Turning to `CN(C)CCCNC(=O)CCNC(=O)c1cc(NC(=O)c2cc(NC(=O)c3nc(NC(=O)c4cc(NC(=O)CCCNC(=O)c5cc(NC(=O)c6cc(NC(=O)c7nc(NC(=O)c8nccn8C)cn7C)cn6C)cn5C)cn4C)cn3C)cn2C)cn1C`, the equilibrium dissociation constant (Kd) in experiment [1] stood at 2.3 ± 0.3 nM.
